Source: patent publication US4166810A, “Derivatives of 4-desacetyl VLB C-3 carboxyhydrazide” (priority 1978, dated 1979)
Like-named read-outs stand apart in the source and are kept apart here.

What was measured:
[1] = tested on: Gardner lymphosarcoma (GLS); experiment: Transplanted tumor growth inhibition in mice, Gardner lymphosarcoma (GLS); format: in vivo; details: for inhibition in vivo at 0.125 mg/kg: 0.125 mg/kg × 10 days; for inhibition in vivo at 0.25 mg/kg: 0.25 mg/kg × 10 days
Method: (§1) The compounds of this invention are active in inhibiting the growth of transplanted tumors in mice and/or in prolonging the life of tumor-innoculated mice. […] The size of the tumor was measured at 7 or 11 days where the drug inhibited tumor growth. Where life-prolongation was concerned, extra life span of treated animals over that of control animals was determined.
(§2) The following table--Table 1--gives the results of experiments in which mice bearing transplanted tumors were treated successfully with a compound of this invention. In the table, column 1 gives the name of the compound; column 2, the transplanted tumor; column 3, the dose level or dose level range and the number of days the dosage was administered; and column 4, the percent inhibition of tumor growth or percent prolongation of survival time, e.g., B16 (ROS is an abbreviation for Ridgeway osteogenic sarcoma; GLS for Gardner lymphosarcoma; P 1534 (J) for a leukemia and B16 for a malignant melanoma.

[2] = tested on: B16 malignant melanoma; experiment: Survival prolongation in mice bearing B16 malignant melanoma; format: in vivo
Method: as §1, §2

[3] = tested on: leukemias; details: clinical trial in humans; cited from earlier work
[4] = humans; compared with vincristine; cited from earlier work
[5] = tested on: vincristine-resistant leukemias; details: humans; cited from earlier work
[6] = tested on: experimental malignancies; details: animals; cited from earlier work
[7] = tested on: transplanted tumors; details: Belgian Pat. No. 813,168; cited from earlier work
[8] = tested on: Ridgeway osteogenic sarcoma; details: Belgian Pat. No. 813,168; cited from earlier work
[9] = tested on: Gardner lymphosarcoma; details: Belgian Pat. No. 813,168; cited from earlier work
[10] = tested on: P 1534(J) leukemia; details: Belgian Pat. No. 813,168; cited from earlier work
[11] = Mus musculus, 168 h, measured at 7 days, read-out: Percent Inhibition (of tumor growth), 7 days
[12] = Mus musculus, 264 h, measured at 11 days, read-out: Percent Inhibition (of tumor growth), 11 days

For CCC1(O)CC2CN(CCc3c([nH]c4ccccc34)C(C(=O)OC)(c3cc4c(cc3OC)N(C)C3C(O)(C(=O)NNC(C)=O)C(O)C5(CC)C=CCN6CCC43C65)C2)C1 (stereo not drawn) [4-Desacetyl VLB C-3 N^2-acetylcarboxhydrazide], the “Percent Inhibition (of tumor growth), 11 days” value ([1]; 0.5 mg/kg × 10 days, measured at 11 days) was “Toxic”, the inhibition in vivo at 0.125 mg/kg [1, 11] was 100% and the inhibition in vivo at 0.25 mg/kg [1, 11] was 100%. The inhibition in vivo at 0.5 mg/kg ([1]; Mus musculus, 168 h, 0.5 mg/kg × 10 days, measured at 7 days, read-out: Percent Inhibition (of tumor growth), 7 days) was 100%, the inhibition in vivo at 0.125 mg/kg [1, 12] was 93% and the inhibition in vivo at 0.25 mg/kg [1, 12] was 100%. The “Percent Prolongation (of survival time)” value ([2]; 0.15 mg/kg × 3 days) was 71%, the “Percent Prolongation (of survival time)” value ([2]; 0.3 mg/kg × 3 days) was 100% and the “Percent Prolongation (of survival time)” value ([2]; 0.6 mg/kg × 3 days) was 109%. The “Percent Prolongation (of survival time)” value ([2]; 0.9 mg/kg × 3 days) was 84% and the “Percent Prolongation (of survival time)” value ([2]; 1.2 mg/kg × 3 days) was 69%.
In the case of CC[C@]1(O)C[C@@H]2CN(CCc3c([nH]c4ccccc34)[C@@](C(=O)OC)(c3cc4c(cc3OC)N(C)[C@H]3[C@@](O)(C(N)=O)[C@H](O)[C@]5(CC)C=CCN6CC[C@]43[C@@H]65)C2)C1 [vindesine, 4-desacetyl VLB C-3 carboxamide], the activity in leukemias [3] is given as “found active in certain leukemias”, the neurotoxicity [4] is given as “less neurotoxicity than does vincristine” and the “effectiveness against vincristine-resistant leukemias” value [5] is given as “apparently effective against vincristine-resistant leukemias”.
For CCC1(O)CN2CCc3c([nH]c4ccccc34)C(C(=O)OC)(c3cc4c(cc3OC)N(C)C3C(O)(C(=O)OC)CC5(CC)C=CCN6CCC43C65)CC(C2)C1O (stereo not drawn) [4-desacetoxy-3'-hydroxyvinblastine], the “activity in the treatment of experimental malignancies” value (“activity in the treatment” for short) [6] is listed as “found active in the treatment of experimental malignancies in animals”.
In the case of CCC1CC2CN(CCc3c([nH]c4ccccc34)C(C(=O)OC)(c3cc4c(cc3OC)N(C)C3C(O)(C(=O)OC)C(OC(C)=O)C5(CC)C=CCN6CCC43C65)C2)C1 (stereo not drawn) [deoxy VLB "A"], the “activity in the treatment” value [6] is given as “found active in the treatment of experimental malignancies in animals”.
For CCC1(O)CC2CN(CCc3c([nH]c4ccccc34)C(C(=O)OC)(c3cc4c(cc3OC)N(C)C3C(O)(C(=O)OC)CC5(CC)C=CCN6CCC43C65)C2)C1 (stereo not drawn) [4-desacetoxyvinblastine], the “activity in the treatment” value [6] is given as “found active in the treatment of experimental malignancies in animals”.
In the case of CCC1(O)CC2CN(CCc3c([nH]c4ccccc34)C(C(=O)OC)(c3cc4c(cc3OC)N(C)C3C(O)(C(=O)NN)C(O)C5(CC)C=CCN6CCC43C65)C2)C1 (stereo not drawn) [4-Desacetyl VLB C-3 carboxhydrazide], the “anti-tumor activity against transplanted tumors in mice” value [7] is listed as “active anti-tumor agent against transplanted tumors in mice”, the “activity against Ridgeway osteogenic sarcoma” value [8] is listed as “active” and the “activity against Gardner lymphosarcoma” value [9] is listed as “active”. For the same compound, the “activity against P 1534(J) leukemia” value [10] was “active”.
